The values that follow come from article PMC4232510, “Identification of Functionally Important Residues of the Rat P2X4 Receptor by Alanine Scanning Mutagenesis of the Dorsal Fin and Left Flipper Domains” (PLoS ONE, 2014).

Experiment [1] deals with T1, rP2X4R D283A mutant (Rattus norvegicus, UniProt P51577, D283A).
T1 construct: expressed in transfected cells; host or cells: HEK293T
T1 sequence (P51577 1-388 D283A): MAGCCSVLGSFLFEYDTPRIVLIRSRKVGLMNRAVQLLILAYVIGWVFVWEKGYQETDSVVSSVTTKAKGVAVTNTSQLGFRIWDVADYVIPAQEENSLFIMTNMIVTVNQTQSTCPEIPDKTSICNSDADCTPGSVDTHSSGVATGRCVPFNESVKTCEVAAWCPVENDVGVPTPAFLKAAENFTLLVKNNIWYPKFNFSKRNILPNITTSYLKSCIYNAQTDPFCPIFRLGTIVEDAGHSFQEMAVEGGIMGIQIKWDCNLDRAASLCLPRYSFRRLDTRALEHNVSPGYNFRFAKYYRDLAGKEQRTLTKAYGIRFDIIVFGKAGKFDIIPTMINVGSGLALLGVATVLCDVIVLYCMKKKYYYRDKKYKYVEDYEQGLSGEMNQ
Put plainly: whole-cell patch clamp, HEK293T cells expressing mutant. It counts as cell-based. On the technique in general: In patch-clamp work, channel activity is measured electrically.

Experiment [2] has as its target T2, rP2X4R V288A mutant (Rattus norvegicus, UniProt P51577, V288A).
T2 construct: expressed in transfected cells; host or cells: HEK293T
T2 sequence (P51577 1-388 V288A): T1 sequence (P51577 1-388 D283A) with A283D, V288A
The description is as above. It counts as cell-based.

The mark [3] stands for this setting: 100 µM ATP 60 s, biexponential fit.
Where [4] appears, read: contribution of τdes2, 100 µM ATP 60 s.
Setting [5] is: decay after removal of 1 or 3 µM ATP, 3 µM IVM.
[6] abbreviates: naïve receptors, 2–5 s application.
The mark [7] stands for this setting: 3 µM IVM 4-6 min vs IVM-untreated.

Residue numbers refer to the chain shown, from its start.

Take `Nc1ncnc2c1ncn2[C@@H]1O[C@H](COP(=O)(O)OP(=O)(O)OP(=O)(O)O)[C@@H](O)[C@H]1O` [ATP]: the values for the τdes1 in experiment [1] (setting [3]) and in experiment [2] (setting [3]) were 2.2 ± 0.6 s and 1.7 ± 0.3 s, respectively. In addition, the τdes2 came to 17.1 ± 5.8 s in experiment [1] (setting [3]) and 9.3 ± 1.7 s in experiment [2] (setting [3]). The Imax is listed as 2.2 ± 0.3 nA in experiment [1] (100–1000 µM ATP) and 1.3 ± 0.2 nA in experiment [2] (100–1000 µM ATP). The “Imax+IVM” value in experiment [1] (ATP after 3 µM IVM 4-6 min) was found to be 3.1 ± 0.3 nA; in experiment [2] (ATP after 3 µM IVM 4-6 min), 3.0 ± 0.7 nA. For the same molecule, the entries for the “A2 /(A1+A2)” value in experiment [1] (setting [4]) and in experiment [2] (setting [4]) were 59 ± 10% and 72 ± 8%, respectively. For the same molecule, the results for the “τoff +IVM” value in experiment [1] (setting [5]) and in experiment [2] (setting [5]) were 16 ± 1.7 s and 19 ± 2.0 s, respectively. The half-maximal effective concentration (EC50) (usually the concentration that produces a half-maximal response) in experiment [1] (setting [6]) worked out at 7.3 ± 3.4 µM; in experiment [2] (setting [6]), 5.7 ± 3.1 µM. The τdes was found to be 9.1 ± 1.5 s in experiment [1] (weighted, 100 µM ATP 60 s) and 7.5 ± 1.6 s in experiment [2] (weighted, 100 µM ATP 60 s).

With `CC[C@H](C)[C@H]1O[C@]2(CC[C@@H]1C)C[C@@H]1C[C@@H](C/C=C(\C)[C@@H](O[C@H]3C[C@H](OC)[C@@H](O[C@H]4C[C@H](OC)[C@@H](O)[C@H](C)O4)[C@H](C)O3)[C@@H](C)/C=C/C=C3\CO[C@@H]4[C@H](O)C(C)=C[C@@H](C(=O)O1)[C@]34O)O2` [IVM, ivermectin], the entries for the “Fold incr. Imax” value in experiment [1] (setting [7]) and in experiment [2] (setting [7]) were 1.4 ± 0.1 fold and 2.3 ± 0.3 fold, respectively.
